Reference: patent US10450301B2, “Apoptosis signal-regulating kinase 1 inhibitors and methods of use thereof” (ENANTA PHARMACEUTICALS, INC., priority 2017, dated 2019)

Molecular target: ASK1 (Homo sapiens (Human), UniProt Q99683)
Assay: HTRF KinEASE Assay (TR-FRET, STK3 peptide substrate), inhibition of ASK1
Format: biochemical
Conditions: 5 nM ASK1 kinase, 1 μM STK3 peptide substrate, 100 μM ATP, 3 hours; compound 0 to 10 μM
Protocol: Assay HTRF® KinEASE™ Assay
ASK1 was purchased from Thermofisher (Catalogue # PV4011), ATP was purchased from Sigma (Catalogue # A7699), HI-TRF® KinEASE™ Assay System was obtained from Cisbio (Bedford, Mass.). […] HTRF® KinEASE™-STK is a generic method for measuring serine/threonine kinase activities using a time-resolved fluorescence resonance energy transfer (TR-FRET) immunoassay. […] 100 Um ATP is added to start kinase reaction and incubated for 3 hours. The STK3-antibody labeled with Eu^3+-Cryptate and 125 Nm streptavidin-XL665 are mixed in a single addition with stop reagents provided by the Cisbio kit used to stop the kinase reaction. […] The resulting TR-FRET is proportional to the phosphorylation level. Staurosporine was used as the positive control. IC50 was determined by Xlfit 5.3.
By using above method, the inhibition of ASK1 was evaluated for the compounds of Formula (I).

Chain of ASK1 (Q99683 whole entry): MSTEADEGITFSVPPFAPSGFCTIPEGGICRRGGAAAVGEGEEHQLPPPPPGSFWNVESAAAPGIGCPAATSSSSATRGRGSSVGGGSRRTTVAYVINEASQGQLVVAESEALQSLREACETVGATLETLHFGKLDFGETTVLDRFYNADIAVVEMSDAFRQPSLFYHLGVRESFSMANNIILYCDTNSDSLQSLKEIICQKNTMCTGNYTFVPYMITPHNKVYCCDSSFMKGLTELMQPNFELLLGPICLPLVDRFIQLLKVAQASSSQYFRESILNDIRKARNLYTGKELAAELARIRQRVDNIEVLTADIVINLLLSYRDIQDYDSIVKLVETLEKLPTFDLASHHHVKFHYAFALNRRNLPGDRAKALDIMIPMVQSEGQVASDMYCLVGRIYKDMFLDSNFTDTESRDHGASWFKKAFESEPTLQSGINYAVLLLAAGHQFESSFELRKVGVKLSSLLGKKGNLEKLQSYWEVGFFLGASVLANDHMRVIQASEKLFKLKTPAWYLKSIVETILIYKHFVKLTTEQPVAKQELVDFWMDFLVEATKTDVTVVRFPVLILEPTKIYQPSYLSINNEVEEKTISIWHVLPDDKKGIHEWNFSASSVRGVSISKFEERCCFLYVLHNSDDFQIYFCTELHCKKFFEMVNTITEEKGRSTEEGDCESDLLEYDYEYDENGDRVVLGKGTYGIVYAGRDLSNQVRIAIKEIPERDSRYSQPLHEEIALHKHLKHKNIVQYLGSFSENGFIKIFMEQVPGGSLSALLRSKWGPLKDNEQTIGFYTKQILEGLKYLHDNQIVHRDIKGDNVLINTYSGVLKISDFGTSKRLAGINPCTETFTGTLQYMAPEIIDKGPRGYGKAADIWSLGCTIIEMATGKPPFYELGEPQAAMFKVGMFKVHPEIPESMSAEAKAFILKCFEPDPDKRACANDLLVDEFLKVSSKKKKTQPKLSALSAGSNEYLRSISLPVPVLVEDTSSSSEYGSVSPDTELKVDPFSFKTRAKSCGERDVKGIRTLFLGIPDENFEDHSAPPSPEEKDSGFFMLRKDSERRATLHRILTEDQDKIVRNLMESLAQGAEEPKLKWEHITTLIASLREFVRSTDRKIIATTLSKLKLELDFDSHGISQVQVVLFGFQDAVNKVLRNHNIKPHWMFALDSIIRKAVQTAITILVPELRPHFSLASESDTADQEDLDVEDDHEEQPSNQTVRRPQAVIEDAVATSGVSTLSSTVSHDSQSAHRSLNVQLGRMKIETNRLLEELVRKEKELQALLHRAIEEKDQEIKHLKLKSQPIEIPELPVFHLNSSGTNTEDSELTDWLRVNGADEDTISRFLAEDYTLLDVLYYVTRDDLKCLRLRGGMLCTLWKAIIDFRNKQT

## CC(C)n1nnnc1-c1cccc(NC(=O)c2cc3c(cn2)CCN(C(=O)N(C)C2CCCC2)C3)n1 [Example 112]
  IC50: 0.01 to 0.1 µM

## CC(C)NC(=O)N1CCc2cnc(C(=O)Nc3cccc(-c4nnnn4[C@H](C)CO)n3)cc2C1 [Example 132]
  IC50: 0.001 to 0.01 µM

## C[C@H](CO)n1nnnc1-c1cccc(NC(=O)c2cc3c(cn2)CCN(Cc2ccccc2)C3)n1 [Example 133]
  IC50: 0.001 to 0.01 µM

## CC(C)N1Cc2cnc(C(=O)Nc3cccc(-c4nnnn4[C@H](C)CO)n3)cc2C1=O [Example 18, (R)—N-(6-(1-(1-hydroxypropan-2-yl)-1H-tetrazol-5-yl)pyridin-2-yl)-2-isopropyl-1-oxo-2,3-dihydro-1H-pyrrolo[3,4-c]pyridine-6-carboxamide]
  IC50: 0.01 to 0.1 µM

## CCOC(=O)N1CCc2cc(F)c(C(=O)Nc3cccc(-c4nncn4C(C)C)n3)cc2C1 [Example 26]
  IC50: 0.001 to 0.01 µM

## CC(C)n1nnnc1-c1cccc(NC(=O)c2cc3c(cc2F)CCN(C(=O)N(C)CCC(F)(F)F)C3)n1 [Example 107]
  IC50: 0.01 to 0.1 µM

## CCN(C)C(=O)N1CCc2cnc(C(=O)Nc3cccc(-c4nnnn4C(C)C)n3)cc2C1 [Example 115]
  IC50: 0.001 to 0.01 µM

## CC(C)n1nnnc1-c1cccc(NC(=O)c2cc3c(cn2)CCN(S(=O)(=O)CC(F)(F)F)C3)n1 [Example 140]
  IC50: 0.01 to 0.1 µM

## CC(C)c1nnnn1-c1cccc(NC(=O)c2cc3c(cc2F)CCN(S(=O)(=O)CCC(F)(F)F)C3)n1 [Example 100]
  IC50: > 1 µM

## CCN(C)C(=O)N1Cc2ccc(C(=O)Nc3cccc(-c4nnnn4C(C)C)n3)cc2C1 [Example 13]
  IC50: > 1 µM

## CCNC(=O)N1CCc2ccc(C(=O)Nc3cccc(-c4nncn4C(C)C)n3)cc2C1 [Example 63]
  IC50: 0.001 to 0.01 µM

## CC(C)N1CCc2cnc(C(=O)Nc3cccc(-c4nnnn4[C@H](C)CO)n3)cc2C1 [Example 135]
  IC50: 0.01 to 0.1 µM

## C[C@H](CO)n1nnnc1-c1cccc(NC(=O)c2cc3c(cn2)CCN(C(=O)CCC(F)(F)F)C3)n1 [Example 123]
  IC50: 0.001 to 0.01 µM

## C=CCNC(=O)N1CCc2ccc(C(=O)Nc3cccc(-c4nncn4C(C)C)n3)cc2C1 [Example 33]
  IC50: 0.01 to 0.1 µM

## COC(=O)N1CCc2cnc(C(=O)Nc3cccc(-c4nnnn4[C@H](C)CO)n3)cc2C1 [Example 128]
  IC50: 0.001 to 0.01 µM

## COCCC(=O)N1CCc2cnc(C(=O)Nc3cccc(-c4nnnn4[C@H](C)CO)n3)cc2C1 [Example 122]
  IC50: 0.001 to 0.01 µM

## CC(C)n1nnnc1-c1cccc(NC(=O)c2ccc3c(c2)CN(S(=O)(=O)CCC(F)(F)F)C3)n1 [Example 14]
  IC50: > 1 µM

## C=CCN1CCc2ccc(C(=O)Nc3cccc(-c4nncn4C(C)C)n3)cc2C1 [Example 39, 2-allyl-N-(6-(4-isopropyl-4H-1,2,4-triazol-3-yl)pyridin-2-yl)-1,2,3,4-tetrahydroisoquinoline-7-carboxamide]
  IC50: 0.1 to 1 µM

## CC(C)n1cnnc1-c1cccc(NC(=O)c2ccc3c(c2)CN(S(=O)(=O)CCC(F)(F)F)C3)n1 [Example 4, N-(6-(4-isopropyl-4H-1,2,4-triazol-3-yl)pyridin-2-yl)-2-((3,3,3-trifluoropropyl)sulfonyl)isoindoline-5-carboxamide]
  IC50: 0.1 to 1 µM

## COCCCN1CCc2ccc(C(=O)Nc3cccc(-c4nncn4C(C)C)n3)cc2C1 [Example 38, N-(6-(4-isopropyl-4H-1,2,4-triazol-3-yl)pyridin-2-yl)-2-(3-methoxypropyl)-1,2,3,4-tetrahydroisoquinoline-7-carboxamide]
  IC50: 0.1 to 1 µM

## C[C@H](CO)n1nnnc1-c1cccc(NC(=O)c2cc3c(cn2)CCN(C(=O)N2CCCC2)C3)n1 [Example 144, (R)—N-(6-(1-(1-hydroxypropan-2-yl)-1H-tetrazol-5-yl)pyridin-2-yl)-6-(pyrrolidine-1-carbonyl)-5,6,7,8-tetrahydro-2,6-naphthyridine-3-carboxamide]
  IC50: 0.001 to 0.01 µM

## C[C@H](CO)n1nnnc1-c1cccc(NC(=O)c2cc3c(cn2)CCN(S(=O)(=O)CCC(F)(F)F)C3)n1 [Example 150]
  IC50: 0.001 to 0.01 µM

## COCCNC(=O)N1CCc2cnc(C(=O)Nc3cccc(-c4nnnn4[C@H](C)CO)n3)cc2C1 [Example 130]
  IC50: 0.001 to 0.01 µM

## CCN(C)C(=O)N1CCc2cc(F)c(C(=O)Nc3cccc(-n4nnnc4C(C)C)n3)cc2C1 [Example 101]
  IC50: > 1 µM

## COc1cc2c(cc1C(=O)Nc1cccc(-c3nncn3C(C)C)n1)C(=O)N(C(C)C)C2 [Example 175, 2-isopropyl-N-(6-(4-isopropyl-4H-1,2,4-triazol-3-yl)pyridin-2-yl)-6-methoxy-3-oxoisoindoline-5-carboxamide]
  IC50: 0.01 to 0.1 µM

## CC1NCCc2cc(F)c(C(=O)Nc3cccc(-c4nnnn4C(C)C)n3)cc21 (stereo not shown) [Example 68, 6-fluoro-N-(6-(1-isopropyl-1H-tetrazol-5-yl)pyridin-2-yl)-1-methyl-1,2,3,4-tetrahydroiso-quinoline-7-carboxamide]
  IC50: 0.1 to 1 µM

## C[C@H](CO)n1nnnc1-c1cccc(NC(=O)c2cc3c(cn2)CCN(C(=O)NC2COC2)C3)n1 [Example 186]
  IC50: 0.01 to 0.1 µM

## CC(C)n1nnnc1-c1cccc(NC(=O)c2cc3c(cc2F)CCN(C(=O)NC2CCCC2)C3)n1 [Example 56]
  IC50: 0.01 to 0.1 µM

## CC(C)n1cnnc1-c1cccc(NC(=O)c2cc3c(cc2F)CCN(C(=O)N2CCCC2)C3)n1 [Example 44]
  IC50: 0.001 to 0.01 µM

## CC(=O)OC[C@@H](C)n1nnnc1-c1cccc(NC(=O)c2cc3c(cc2F)CCN(C(=O)OCc2ccccc2)C3)n1 [Example 109]
  IC50: > 1 µM

## CC(C)n1nnnc1-c1cccc(NC(=O)c2cc3c(cc2F)CCN(S(=O)(=O)CCC(F)(F)F)C3)n1 [Example 40]
  IC50: 0.01 to 0.1 µM

## CC(C)N1Cc2ccc(C(=O)Nc3cccc(-c4nnnn4C(C)C)n3)cc2C1=O [Example 1, 2-isopropyl-N-(6-(1-isopropyl-1H-tetrazol-5-yl)pyridin-2-yl)-3-oxoisoindoline-5-carboxamide]
  IC50: 0.1 to 1 µM

## CC(C)n1nnnc1-c1cccc(NC(=O)c2cc3c(cc2F)CCN(S(=O)(=O)CC2CC(F)(F)C2)C3)n1 [Example 102]
  IC50: 0.01 to 0.1 µM

## CCOC(=O)N1Cc2ccc(C(=O)Nc3cccc(-c4nncn4C(C)C)n3)cc2C1 [Example 7, ethyl 5-((6-(4-isopropyl-4H-1,2,4-triazol-3-yl)pyridin-2-yl)carbamoyl)isoindoline-2-carboxylate]
  IC50: 0.1 to 1 µM

## CCNC(=O)N1CCc2cc(F)c(C(=O)Nc3cccc(-c4nnnn4C(C)C)n3)cc2C1 [Example 29, N2-ethyl-6-fluoro-N7-(6-(1-isopropyl-1H-tetrazol-5-yl)pyridin-2-yl)-3,4-dihydroisoquinoline-2,7(1H)-dicarboxamide]
  IC50: 0.001 to 0.01 µM

## CC(C)n1cnnc1-c1cccc(NC(=O)c2cc3c(cn2)CN(C(=O)OCc2ccccc2)C3)n1 [Example 179, benzyl 6-((6-(4-isopropyl-4H-1,2,4-triazol-3-yl)pyridin-2-yl)carbamoyl)-1,3-dihydro-2H-pyrrolo[3,4-c]pyridine-2-carboxylate]
  IC50: 0.01 to 0.1 µM

## C[C@H](CO)n1nnnc1-c1cccc(NC(=O)c2cc3c(cn2)CCN(C(=O)OC(C)(C)C)C3)n1 [Example 143, tert-butyl (R)-7-((6-(1-(1-hydroxypropan-2-yl)-1H-tetrazol-5-yl)pyridin-2-yl)carbamoyl)-3,4-dihydro-2,6-naphthyridine-2(1H)-carboxylate]
  IC50: 0.001 to 0.01 µM

## C[C@H](CO)n1nnnc1-c1cccc(NC(=O)c2cc3c(cn2)CCN(C=O)C3)n1 [Example 142, (R)-6-formyl-N-(6-(1-(1-hydroxypropan-2-yl)-1H-tetrazol-5-yl)pyridin-2-yl)-5,6,7,8-tetrahydro-2,6-naphthyridine-3-carboxamide]
  IC50: 0.001 to 0.01 µM

## CC(C)n1cnnc1-c1cccc(NC(=O)c2ccc3c(c2)CNCC3)n1 [Example 37, N-(6-(4-isopropyl-4H-1,2,4-triazol-3-yl)pyridin-2-yl)-1,2,3,4-tetrahydroisoquinoline-7-carboxamide]
  IC50: 0.1 to 1 µM

## C[C@H](CO)n1nnnc1-c1cccc(NC(=O)c2cc3c(cn2)CCN(C(=O)NC2CCCC2)C3)n1 [Example 169]
  IC50: 0.001 to 0.01 µM

## C[C@H](CO)n1nnnc1-c1cccc(NC(=O)c2cc3c(cn2)CCN(C(=O)C(C)(C)C)C3)n1 [Example 152]
  IC50: 0.001 to 0.01 µM

## C[C@H](CO)n1nnnc1-c1cccc(NC(=O)c2cc3c(cn2)CCN(C(=O)N2CCC2)C3)n1 [Example 185, (R)-6-(azetidine-1-carbonyl)-N-(6-(1-(1-hydroxypropan-2-yl)-1H-tetrazol-5-yl)pyridin-2-yl)-5,6,7,8-tetrahydro-2,6-naphthyridine-3-carboxamide]
  IC50: 0.001 to 0.01 µM

## CCn1cc(CNC(=O)N2CCc3cnc(C(=O)Nc4cccc(-c5nnnn5[C@H](C)CO)n4)cc3C2)cn1 [Example 187]
  IC50: < 0.001 µM

## CCCOC(=O)N1CCc2cnc(C(=O)Nc3cccc(-c4nnnn4[C@H](C)CO)n3)cc2C1 [Example 160]
  IC50: 0.001 to 0.01 µM

## C[C@H](CO)n1nnnc1-c1cccc(NC(=O)c2cc3c(cn2)CCN(C(=O)C2CC2)C3)n1 [Example 155]
  IC50: 0.001 to 0.01 µM

## C[C@H](CO)n1nnnc1-c1cccc(NC(=O)c2cc3c(cn2)CCN(CC2CC2)C3)n1 [Example 163, (R)-6-(cyclopropylmethyl)-N-(6-(1-(1-hydroxypropan-2-yl)-1H-tetrazol-5-yl)pyridin-2-yl)-5,6,7,8-tetrahydro-2,6-naphthyridine-3-carboxamide]
  IC50: 0.001 to 0.01 µM

## CCNC(=O)N1CCc2cc(F)c(C(=O)Nc3cccc(-c4nncn4C(C)C)n3)cc2C1 [Example 52]
  IC50: 0.001 to 0.01 µM

## CCCN1CCc2cnc(C(=O)Nc3cccc(-c4nnnn4[C@H](C)CO)n3)cc2C1 [Example 165]
  IC50: 0.001 to 0.01 µM

## CCNC(=O)N1CCc2cnc(C(=O)Nc3cccc(-c4nnnn4C(C)C)n3)cc2C1 [Example 117]
  IC50: 0.001 to 0.01 µM
